The record followed here is PubChem BioAssay AID602287 (National Center for Advancing Translational Sciences (NCATS), 2012).

Molecules are shown by their SMILES. Values after ≈ are worked out from the molar mass of the structure shown. Results filed as inconclusive are left out.

The subject of this data set is PBS pH 7.4 solubility, LC-UV/MS, 1 h shake. Briefly: qHTS Assay for Agonists of the Relaxin Receptor RXFP1: PBS Solubility. To be noted: stronger effect = higher value. From the text: The relaxin hormone is involved in the variety of biological functions in normal tissues and diseases. The role of relaxin is well-established in female reproduction and parturition, mammary gland and endometrial development, maintenance of myometrial quiescence during pregnancy. Relaxin signaling through its G protein-coupled receptor (GPCR) RXFP1 results in ECM remodeling through regulation of collagen deposition, cell invasiveness, proliferation and overall tissue homeostasis. […] Recombinant human relaxin (rhRlx) is currently being tested in clinical trials as a protective agent in congestive heart failure, in treating severe preeclampsia, and as an anti-fibrotic agent in systemic sclerosis. The probe and analogs were tested to assess their PBS solubility in this assay. NIH Chemical Genomics Center [NCGC] NIH Molecular Libraries Probe Production Centers Network [MLPCN] MLPCN Grant: R03 MH085705 Assay Submitter (PI): Alexander Agoulnik
1. 8ul of reference and test compound stock solution were added to 392ul 100mM phosphate buffer (pH 7.4) 2. Sample tubes were shaken for 1 hr (1000 rpm) at room temperature 3. Samples were centrifuged (10 min at 12000 rpm) to precipitate un-dissolved particles 4. Supernatants were transferred to new tubes 5. Concentration of the supernatant was determined by LC-UV or LC-MS/MS

Broadly, the solubility is the concentration that dissolves in the medium under given conditions. Consider `CCCCOc1ccccc1C(=O)Nc1ccccc1C(=O)Nc1cccc(S(=O)(=O)C(F)(F)F)c1`, for which the solubility was 5.3 µM (≈ 2.76 µg/mL).
On to `COc1ccccc1C(=O)Nc1ccccc1C(=O)Nc1cccc(SC(F)(F)F)c1`, for which the solubility is 2.9 µM (≈ 1.29 µg/mL).
On to `CCOc1ccccc1C(=O)Nc1ccccc1C(=O)Nc1cccc(C(F)(F)F)c1`, for which the solubility is 1.7 µM (≈ 0.728 µg/mL).
As to `CCOc1ccccc1C(=O)Nc1ccccc1C(=O)Nc1cccc(S(=O)(=O)C(F)(F)F)c1`, the solubility was 1.1 µM (≈ 0.542 µg/mL).
In the case of `CC(C)Oc1ccccc1C(=O)Nc1ccccc1C(=O)Nc1cccc(S(=O)(=O)C(F)(F)F)c1`, the solubility was 7 µM (≈ 3.55 µg/mL).
